Measurements published in patent US20220062240A1, “METHODS OF TREATING CANCER USING A CLK INHIBITOR” (BioSplice Therapeutics, Inc., priority 2018, published 2022).

Legend:
SW480 cells [1] = test: Wnt pathway gene (qRT-PCR) and protein (immunoblot) expression; type: cell-based, human; details: SW480, 24 hours, compared to DMSO
Method: Fold-change relative to DMSO is shown (n=3 biological replicates per group, Mean±SD, **P<0.01; ***P<0.001, student's two-tailed t-test).
FIG. 6D is an immunoblot showing Wnt pathway-related protein expression in SW480 cells treated as indicated for 24 hours. The proteins were separated into nuclear and cytoplasmic fractions. GAPDH and Lamin B1 represent cytoplasmic and nuclear protein loading controls, respectively. The blots are representative of two experiments.
FIG. 6E is an immunoblot showing Wnt pathway-related protein expression in SW480 cells treated as indicated for 48 hours. The proteins were separated into nuclear and cytoplasmic fractions. GAPDH and Lamin B1 represent cytoplasmic and nuclear protein loading controls, respectively. The blots are representative of two experiments.
The fold-change relative to DMSO is shown (n=3 biological replicates per group, Mean±SD, *P<0.05; **P<0.01; ***P<0.001, student's two-tailed t-test).
FIG. 7C is an immunoblot showing protein expression of hits identified in FIG. 7A. SW480 cells were treated as indicated for 24 hours and proteins were separated into nuclear and cytoplasmic fractions. GAPDH and Lamin B1 represent the cytoplasmic and nuclear protein loading controls, respectively. The blots are representative of two experiments.
(§1) For indicated experiments, cells were pelleted by centrifugation and washed with PBS and protein from the cell pellet was fractionated into cytoplasmic and nuclear fractions using a NE-PER™Nuclear and Cytoplasmic Extraction Reagents kit containing Halt™ protease and phosphatase inhibitors (Thermo Fisher). Protein concentrations of the samples were quantified using the Pierce Micro BCA protein assay kit (Thermo Fisher). […] Primary antibodies were incubated overnight at 4° C., with GAPDH, Lamin B1 or β-actin being used as loading controls (refer to Table 19 for primary antibodies and dilutions used).
Total RNA was isolated using RNeasy Plus mini kit (Qiagen) or MagMAX Total RNA kit (Thermo Fisher) as per the manufacturers' protocol. cDNA was synthesized using the iScript cDNA Synthesis Kit (Bio-Rad), followed before performing qRT-PCR. Reactions were then run on a real-time PCR system (CFX384; Bio-Rad). Relative gene expression was determined by normalizing to GAPDH using the ΔΔCt method.

[2] = test system: nuclear speckles in SW480 cells; test: Nuclear speckle staining (phospho-SC35); type: cell-based, human; details: SW480, 6 hours, 0.3-10 μM
Method: […]. The cells were stained with a phospho-SC35 antibody (green) and a Hoechst 33342 nuclear stain (blue). Scale bar, 10 μm.
FIG. 9A is a set of representative immunofluorescence images (×100 magnification) of SW480 cells treated with indicated concentrations for 6 hours. The cells were stained with a phospho-SC35 antibody (green) and a Hoechst 33342 nuclear stain (blue). Scale bar, 10 μm.
[…]. After approximately 6 hr, cells were fixed and stained a phospho-SC35 antibody (Santa Cruz Biotechnology). Cells were then labelled with an Alexa-Fluor 488 secondary antibody (Thermo Fisher) containing DAPI (Thermo Fisher). Cells were imaged at 100× magnification.

[3] = test system: SRSF6 and SRSF5 phosphorylation in SW480 cells; test: SR phosphorylation immunoblot; type: cell-based, human; details: SW480, 1 hour
Method: FIG. 6A is an immunoblot showing phosphorylated SRSF6 and SRSF5 in SW480 cells treated as indicated for 1 hour. Total SRSF5 and R-actin blots were used as loading controls. The blots are representative of two experiments.
First, it was determined that CLK1, CLK2, and CLK3 localized into the nucleus, while CLK4 was predominantly detected in the cytoplasm (FIG. 5). […]. Zhou et al., Chromosoma 122, 191-207, 2013).
as §1

SW480 cells [4] = test: Cell viability assay in SW480 cells (Compound 12, CC-671, Harmine); type: cell-based; details: Homo sapiens, SW480, 96 h, read-out: EC50 cell viability
From the text: The data is representative from three independent assays performed in quadruplicate.

[5] = test system: Wnt responsive TOPflash reporter in SW480 colon cancer cells; test: TOPflash β-catenin/TCF-responsive reporter assay; type: cell-based, human; details: Homo sapiens
Method: Human colorectal cancer cell line SW480, stably expressing the Wnt responsive TOPflash promoter linked to luciferase gene (TOPflash) was used along with SW480 stably expressing a control EF1a-Luciferase reporter gene (GenTarget #LVP434) as a counterscreen. […] Cells were plated at ˜10,000 cells/well and incubated for 40 hours. Luminescence was detected using Bright-Glo (Promega Corp.).

COc1ccc2c(c1)[nH]c1c(C)nccc12 [Harmine]
gene expression of AXIN2, LEF1, MYC, TCF7, CTNNB1 and TCF7L2 (SW480 cells [1]): minimal effect | enlargement of nuclear speckles [2]: not observed | SR phosphorylation (SRSF6, SRSF5) [3]: not active | EC50 (SW480 cells [4]): > 10 µM | EC50 [5]: > 10 µM
